This note sets out measurements from patent US20260317324A1, “BIFUNCTIONAL COMPOUNDS FOR DEGRADING BRAF VIA UBIQUITIN PROTEOSOME PATHWAY” (Nurix Therapeutics, Inc., priority 2023, published 2026).

Common to all, as to format: cell-based
Assay [1] addresses T1, BRAF V600E (Homo sapiens, UniProt P15056, V600E).
T1 construct: endogenous C-terminal HiBiT fusion tag on BRAF V600E allele; endogenous in cells; host or cells: A375 clone 1F10 (CRISPR-Cas9 knock-in of the HiBiT tag; parental A375 from ATCC)
Kind of assay: BRAF HiBiT degradation assay, C-terminal HiBiT-tagged BRAF V600E A375 cells (clone 1F10), Nano-Glo HiBiT Lytic assay. The note with it: A375 (BRAF V600E, Class 1); for DC50: DC50 at 50% degradation; for Dmax: A-375, observed Dmax, % protein degraded relative to DMSO control. The gist of the method: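 Using CRISPR-engineered A375 cells that carry a C-terminal HiBiT tag on endogenous BRAF V600E, remaining protein was quantified by lytic luminescence relative to DMSO-treated cells, with wildtype A375 as the background control. DC50 denotes the concentration giving 50% degradation.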
A general note: HiBiT is a short tag that completes a luciferase, so light tracks the accessible tagged protein.

Assay [2] has as its target T2, BRAF G466V (Homo sapiens, UniProt P15056, G466V).
T2 construct: Horizon Discovery (HCT-116 BRAF−/− cells); host or cells: HCT-116 BRAF−/− cells, clone 8, lentiviral transduction
The assay can be described thus: BRAF HiBiT degradation assay, C-terminal HiBiT-tagged BRAF G466V overexpressed in HCT-116 BRAF−/− cells (clone 8), Nano-Glo HiBiT Lytic assay. The note with it: BRAF G466V (Class 3), HCT-116 BRAF−/− cells; for DC50: DC50 at 50% degradation; for Dmax: observed Dmax relative to DMSO control. The text has this: (§1) An A375 cell line expressing a homozygous V600E mutation was purchased from ATCC (Manassas, VA, USA). An A375 clone 1F10 cell line with an endogenous C-terminal HiBiT fusion tag on BRAF V600E allele was generated internally using CRISPR-Cas9 technology and cultured in DMEM, high glucose supplemented with 10% FBS and 1× GlutaMAX. A HCT-116 BRAF−/− cell line overexpressing the C-terminal HiBiT-tagged G466V, G469A, and D594G mutants were generated by lentiviral transduction, externally at Biosettia Inc (San Diego, CA, USA). The stably transfected cells were cultured in RPMI media supplemented with 10% FBS, 1× GlutaMAX, and 0.25 μg/ml puromycin. DMEM medium, RPMI 1640 medium, GlutaMAX, fetal bovine serum (FBS), and puromycin were purchased from Gibco (Grand Island, NY, USA). HCT-116 BRAF−/− cells were purchased from Horizon Discovery (Waterbeach, UK).
(§2) The C-terminal HiBiT tagged mutant BRAF G466V, G469A, and D594G overexpressed in HCT-116 BRAF−/− cells (monoclonal cell line, cell clones 8, 34, and 63, respectively) were seeded at the density of 3,000 cells/well in 30 μL media (RPMI supplemented with 10% FBS and 1× GlutaMAX) in white opaque 384-well plates (Corning #3570) from column 1 to column 23. Wildtype HCT-116 BRAF cells were seeded in column 24 at the same cell density in 30 μL media. Cells were incubated at 37° C. with 5% CO2 for 24 h.
(§3) Intermediate compound dilution series (5-point, ranging from 5 mM to 0.5 μM, 10-fold dilutions in DMSO) were prepared in a source plate (Beckman Coulter cat. no. 001-16128). Final compound dilution series (11-point, ranging from 1 μM to 0.01 nM, half-log dilutions in DMSO) were stamped into the assay plate (Corning #3570, column 1-11 and 12-22) using the Echo Acoustic Liquid Handler (Beckman Coulter). Each compound was plated in duplicate, and the total volume of compound DMSO solution was 60 nL/well (0.2% final DMSO concentration). DMSO was included in wells A23-L23 and A24-L24. The DMSO-treated HiBiT-tagged samples served as Negative Control (NC) and the DMSO-treated wildtype samples served as Background Control (BC) for the HiBiT assay.
(§4) HiBiT signal was measured by a Nano-Glo HiBiT Lytic assay (Promega cat. no. N3050). HiBiT lytic detection reagent (Nano-Glo HiBiT Lytic Buffer with 1:50 Nano-Glo HiBiT Lytic Substrate and 1:100 LgBiT Protein, 40 μL) was added using Bravo. The mixture was incubated at room temperature, in the dark, and with gentle shaking for 10 min. Luminesce units (LU) were read on an EnVision plate reader 2105 (Perkin Elmer).
(§5) Percent protein remaining and viability remaining per sample were calculated as follows: […]
(§6) % Protein remaining values were plotted as a function of compound concentration. XC50 (DC50) values were determined by fitting curves using the following equation:
(§7) For the HiBiT degradation assay, the key parameters reported include: • The dose of compound that produces 50% degradation (DC50 at 50%): • DC50 at 50%: the Fitted X value (Conc.) at Y=50 (response) • Observed Dmax (Obs. Dmax) is the percentage protein degraded at maximal compound effect relative to DMSO-treated control: […]

Assay [3] addresses T3, BRAF G469A (Homo sapiens, UniProt P15056, G469A).
T3 construct: Horizon Discovery (HCT-116 BRAF−/− cells); host or cells: HCT-116 BRAF−/− cells, clone 34, lentiviral transduction
The assay can be described thus: BRAF HiBiT degradation assay, C-terminal HiBiT-tagged BRAF G469A overexpressed in HCT-116 BRAF−/− cells (clone 34), Nano-Glo HiBiT Lytic assay. The following applies: BRAF G469A (Class 2), HCT-116 BRAF−/− cells; for DC50: DC50 at 50% degradation; for Dmax: observed Dmax relative to DMSO control.
Description: as §1, §2, §3, §4, §5, §6, §7

For assay [4], the target named is T4, BRAF D594G (Homo sapiens, UniProt P15056, D594G).
T4 construct: Horizon Discovery (HCT-116 BRAF−/− cells); host or cells: HCT-116 BRAF−/− cells, clone 63, lentiviral transduction
T4 sequence (P15056 whole entry D594G): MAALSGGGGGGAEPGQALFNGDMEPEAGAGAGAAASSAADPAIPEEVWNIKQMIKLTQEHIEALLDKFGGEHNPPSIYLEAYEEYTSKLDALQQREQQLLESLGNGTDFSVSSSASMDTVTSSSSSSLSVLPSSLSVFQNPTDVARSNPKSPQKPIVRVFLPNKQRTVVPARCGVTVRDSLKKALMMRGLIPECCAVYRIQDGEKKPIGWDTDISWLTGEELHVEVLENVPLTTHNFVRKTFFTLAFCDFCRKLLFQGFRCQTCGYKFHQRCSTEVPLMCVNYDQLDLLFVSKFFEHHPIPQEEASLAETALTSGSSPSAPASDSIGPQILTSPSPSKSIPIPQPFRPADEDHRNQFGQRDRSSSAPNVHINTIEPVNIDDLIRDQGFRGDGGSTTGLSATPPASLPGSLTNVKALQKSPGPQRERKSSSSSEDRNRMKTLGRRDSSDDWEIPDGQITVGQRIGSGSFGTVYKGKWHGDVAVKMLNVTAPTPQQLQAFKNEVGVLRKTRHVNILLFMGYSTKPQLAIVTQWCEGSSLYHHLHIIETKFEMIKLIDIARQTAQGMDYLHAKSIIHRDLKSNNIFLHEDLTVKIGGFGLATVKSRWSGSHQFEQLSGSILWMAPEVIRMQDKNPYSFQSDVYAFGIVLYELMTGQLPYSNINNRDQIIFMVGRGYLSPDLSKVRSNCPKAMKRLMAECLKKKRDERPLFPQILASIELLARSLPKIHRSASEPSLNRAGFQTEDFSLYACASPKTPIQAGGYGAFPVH
The assay can be described thus: BRAF HiBiT degradation assay, C-terminal HiBiT-tagged BRAF D594G overexpressed in HCT-116 BRAF−/− cells (clone 63), Nano-Glo HiBiT Lytic assay. The note with it: BRAF D594G (Class 3), HCT-116 BRAF−/− cells; for DC50: DC50 at 50% degradation; for Dmax: observed Dmax relative to DMSO control.
Description: as §1, §2, §3, §4, §5, §6, §7

Bounds are passed on as bounds.

T3 sequence (P15056 whole entry G469A): as the sequence (P15056 whole entry D594G) above, with G469A, G594D counted along it
T1 sequence (P15056 whole entry V600E, the tested form may be a part): as the sequence (P15056 whole entry D594G) above, with G594D, V600E counted along it
T2 sequence (P15056 whole entry G466V): as the sequence (P15056 whole entry D594G) above, with G466V, G594D counted along it

What is called DC50 is the concentration at which degradation of the target reaches its halfway point. Read a low DC50 as a more potent degrader. The Dmax is the largest share of the target that was removed. Read a high Dmax as a fuller loss of target. In the case of `O=C1CCN(c2ccc(N3CCC(CN4CCN(c5ccc(-n6cc(-c7cc(C(F)F)cc(NS(=O)(=O)N8CCCC8)c7F)c(-c7ccncc7)n6)c(F)c5)CC4)CC3)cc2)C(=O)N1` [Compound 356, N-[5-(difluoromethyl)-3-(1-{4-[4-({1-[4-(2,4-dioxo-1,3-diazinan-1-yl)phenyl]piperidin-4-yl}methyl)piperazin-1-yl]-2-fluorophenyl}-3-(pyridin-4-yl)-1H-pyrazol-4-yl)-2-fluorophenyl]pyrrolidine-1-sulfonamide], the DC50 in assay [1] was 10 to 50 nM; in assay [2] it was 10 to 50 nM; in assay [3] it was over 500 nM; in assay [4], over 500 nM. The Dmax in assay [1] is over 70%; in assay [2], 30 to 70%; in assay [3], under 30%; in assay [4], 30 to 70%.
As for `O=C1CCC(c2ccc(N3CCC4(CC3)CC(CN3CCN(c5ccc(-n6cc(-c7cc(Cl)cc(NS(=O)(=O)N8CC[C@@H](F)C8)c7F)c(-c7ccncc7)n6)nc5)CC3)C4)cc2)C(=O)N1` (mixture of isomers) [Compound 298, (3R)—N-{5-chloro-3-[1-(5-{4-[(7-{4-[(3RS)-2,6-dioxopiperidin-3-yl]phenyl}-7-azaspiro[3.5]nonan-2-yl)methyl]piperazin-1-yl}pyridin-2-yl)-3-(pyridin-4-yl)-1H-pyrazol-4-yl]-2-fluorophenyl}-3-fluoropyrrolidine-1-sulfonamide], the DC50 in assay [1] was 50 to 500 nM; in assay [2], over 500 nM; in assay [3], over 500 nM; in assay [4], over 500 nM. The Dmax in assay [1] is 30 to 70%; in assay [2], under 30%; in assay [3], under 30%; in assay [4], under 30%.
In the case of `C[C@@H]1CN(c2ccc(-n3cc(-c4cc(Cl)cc(NS(=O)(=O)N5CCCC5)c4F)c(-c4ccncc4)n3)nc2)CCN1CC1CCN(c2ccc(N3CCC(=O)NC3=O)cc2)CC1` [Compound 324, N-[5-chloro-3-(1-{5-[(3R)-4-({1-[4-(2,4-dioxo-1,3-diazinan-1-yl)phenyl]piperidin-4-yl}methyl)-3-methylpiperazin-1-yl]pyridin-2-yl}-3-(pyridin-4-yl)-1H-pyrazol-4-yl)-2-fluorophenyl]pyrrolidine-1-sulfonamide], the DC50 in assay [1] was under 10 nM; in assay [2], under 10 nM; in assay [3] it was 50 to 500 nM; in assay [4] it was under 10 nM. In addition, the Dmax in assay [1] was over 70%; in assay [2] it was 30 to 70%; in assay [3], 30 to 70%; in assay [4], 30 to 70%.
With `O=C1CC[C@H](c2ccc(N3CCC(CN4CCN(c5ccc(-n6cc(-c7cc(Cl)cc(NS(=O)(=O)N8CC(F)C8)c7F)c(-c7ccncc7)n6)c(F)c5)CC4)CC3)cc2)C(=O)N1` [Compound 338, N-{5-chloro-3-[1-(4-{4-[(1-{4-[(3R)-2,6-dioxopiperidin-3-yl]phenyl}piperidin-4-yl)methyl]piperazin-1-yl}-2-fluorophenyl)-3-(pyridin-4-yl)-1H-pyrazol-4-yl]-2-fluorophenyl}-3-fluoroazetidine-1-sulfonamide], the DC50 in assay [1], in assay [2], in assay [3] and in assay [4] was under 10 nM in each case. The Dmax in assay [1] is over 70%; in assay [2] it was over 70%; in assay [3], 30 to 70%; in assay [4], 30 to 70%.
